Source: patent publication US4107307A, “Imidazo [1,5-d]-as-triazine-4(3H)-ones and thiones” (American Cyanamid Company, priority 1977, dated 1978)

Legend:
[1] = tested on: spontaneous hypertensive rats; experiment: Anti-hypertensive activity, mean arterial blood pressure of conscious spontaneous hypertensive rats; format: in vivo, rat (adult male spontaneous hypertensive); conditions: second identical dose at 24th hour, vehicle controls 166
Experimental: These compounds have been tested pharmacologically and found to have such properties with a desirable wide spread between doses producing lowered blood pressure and toxic symptoms. In determining this effect of these compounds on hypertension, adult male, 16-20 weeks old, spontaneous hypertensive rats from Taconic Farms, Germantown, N.Y., weighing about 300 grams are used. The rats are dosed by gavage with the test compounds at the indicated dose. All doses of drug were suspended in 2% starch (2 ml./kg.). A second identical dose of the test compound is given at the 24th hour. The mean arterial blood pressure (MAP) of the conscious rats is measured directly by femoral artery puncture at the 28th hour.

[2] = tested on: Monkey Lung Cyclic AMP Phosphodiesterase; experiment: Monkey lung cyclic AMP phosphodiesterase inhibition test (B); format: biochemical, African green monkeys; conditions: method: monkey lung PDE, 10^-6 M cyclic AMP, compound usually 1 mM or 0.1 mM, 25° C. 20 min
Experimental: The inhibition of phosphodiesterase is determined by the mouse skin and monkey lung phosphodiesterase (PDE) inhibition tests as follows:
(B) MONKEY LUNG INHIBITION
Preparation of Monkey Lung Cyclic AMP Phosphodiesterase
Lung parenchyma of African green monkeys is homogenized in a Waring blender and centrifuged at 40,000 × gravity for 20 minutes. The supernatant is brought to 70% saturation of ammonium sulfate, centrifuged and the pellet redissolved and dialysed, before aliquoting and storage at -20° C.
Assay of Monkey Lung Phosphodiesterase
Phosphodiesterase is assayed by the method of Thompson and Appleman, ibid. An assay tube contains a 0.4 ml. solution of the following: 45 mM tris-HCl buffer, pH 7.4, […], 0.1 mM dithioerythritol, 10^-6 M cyclic AMP, 0.1 uCi [^3 H]-cyclic AMP, and test compound at the desired concentration (usually 1 mM or 0.1 mM). Compounds not readily soluble in water are dissolved at 40 times the desired concentration in methanol, and diluted 20 times with water. If the compound is not dissolved at this time, it is suspended by sonication before being diluted 1:2 into the assay tube. In this case the activity of the enzyme in the presence of the compound is compared to a solvent control (2.5% methanol), although the solvent alone has negligible effect. The reaction is initiated by addition of enzyme and proceeds at 25° C. for 20 minutes. It is terminated by incubation at 100° C. for 2 minutes. The tubes are cooled to 25° C., 0.8 ug of 5'-nucleotidase (Crotolu adamantus toxin) is added to each and the tubes incubated at 25° C. for 30 minutes. A 1 milliliter suspension of Bio-Rad Labs. AGIX8 (about 0.5 ml. of settled resin) is added, the tubes centrifuged at 900 × gravity for 10 minutes and an aliquot of supernatant removed for scintillation counting. The inhibition by the test compound is calculated as: [formula] where `compound` is the cpm in the presence of compound, `control` is the cpm in the absence of compound, and `blank` is the cpm in the absence of enzyme. […] For this reason, control tubes which contained [^3 H]-AMP instead of [^3 H]-cyclic AMP are run in parallel. A correction of the apparent phosphodiesterase activity is made for the rare compound which inhibited the hydrolysis of AMP.

[3] = tested on: Mouse Skin Phosphodiesterase; experiment: Mouse skin phosphodiesterase (PDE) inhibition test (A); format: biochemical, hairless mice; parameters: key: Active: A compound is considered active if it inhibits more than theophylline, that is, to 50% of control at 1 mM concentration of compound, or to 80% of control of 0.05 mM concentration of compound; conditions: mouse epidermal PDE, test compound 10 ug./ml., 30° C. 15 min
[4] = Dispersion of aerosol suspension on warming after storage; format: physicochemical; conditions: aerosol in dichlorodifluoromethane with sorbitan trioleate
Experimental: The active ingredient and sorbitan trioleate are placed in a beaker and the dichlorodifluoromethane is added at -40° C. whereupon a suspension is formed. The mixture is sonified, that is, treated with a Sonifier, manufactured by the Branson Sonic Power Co. of Danbury, Conn., as model LS-75 at a current input of 9 amperes for 2 minutes. Additional cold dichlorodifluoromethane is added as necessary to keep the volume at 100 ml. The mixture is uniformly dispersed, and has increased stability resulting from the sonification. Each of six 19 ml. stainless steel containers are filled with 15 ml. of the cold mixture, then valves are inserted and sealed in place.

Row | SMILES | Monkey Lung Phosphodiesterase (B) [2] | Mouse Skin Phosphodiesterase (A) [3] | MAP 28th hour ([1]; 100 mg/kg by gavage) [mm Hg] | other results
1 | Cc1nc(C)n2c(=O)[nH]ncc12 [6,8-Dimethyl-imidazo[1,5-d]-as-triazin-4(3H)-one] | Active | Active | – | MAP 28th hour ([1]; 50 mg/kg by gavage): 70 mm Hg
2 | Cc1nc(C)n2c(=S)[nH]ncc12 [6,8-Dimethyl-imidazo[1,5-d]-as-triazine-4-(3H)-thione] | – | Active | 93 | –
3 | Cc1nc(Cc2ccccc2)n2c(=O)[nH]ncc12 [6-Benzyl-8-methyl-imidazo[1,5-d]-as-triazin-4(3H)-one] | – | Active | – | –
4 | Cc1nc(Cc2ccccc2)n2c(=S)[nH]ncc12 [6-Benzyl-8-methyl-imidazo[1,5-d]-as-triazine-4(3H)-thione] | Active | Active | – | –
5 | O=c1[nH]ncc2cnc(Cc3ccccc3)n12 [6-Benzyl-imidazo[1,5-d]-as-triazin-4(3H)-one] | – | Active | – | –
6 | COCc1ncc2cn[nH]c(=S)n12 [6-Methoxymethyl-imidazo[1,5-d]-as-triazine-4-(3H)-thione] | – | – | 100 | –
7 | Cc1ncc2cn[nH]c(=O)n12 [6-Methyl-imidazo[1,5-d]-as-triazin-4(3H)-one] | – | – | 120 | –
8 | O=c1[nH]ncc2cnc(-c3ccccc3)n12 [6-Phenyl-imidazo[1,5-d]-as-triazin-4(3H)-one] | – | Active | 117 | –
9 | CCCc1ncc2cn[nH]c(=O)n12 [6-n-Propyl-imidazo[1,5-d]-as-triazin-4(3H)-one] | – | Active | – | –
10 | CCCc1ncc2cn[nH]c(=S)n12 [6-n-Propyl-imidazo[1,5-d]-as-triazine-4(3H)-thione] | Active | Active | 136 | –
11 | CCCOc1ccccc1-c1ncc2cn[nH]c(=O)n12 [6-o-Propoxyphenyl-imidazo[1,5-d]-as-triazine-4(3H)-one] | – | Active | – | –
12 | Cc1nc(C(C)(C)C)n2c(=O)[nH]ncc12 [6-tert-Butyl-8-methyl-imidazo[1,5-d]-as-triazin-4(3H)-one] | Active | Active | 133 | –
13 | CC(C)(C)c1ncc2cn[nH]c(=O)n12 [6-tert-Butyl-imidazo[1,5-d]-as-triazin-4(3H)-one] | – | Active | 135 | –
14 | O=c1[nH]ncc2c(Br)nc(-c3ccccc3)n12 [8-Bromo-6-phenyl-imidazo[1,5-d]-as-triazin-4(3H)-one] | Active | Active | – | –
15 | O=c1[nH]ncc2c(Cl)nc(-c3ccccc3)n12 [8-Chloro-6-phenyl-imidazo[1,5-d]-as-triazin-4(3H)-one] | Active | Active | – | –
16 | CCCc1nc(C)c2cn[nH]c(=O)n12 [8-Methyl-6-n-propyl-imidazo[1,5-d]-as-triazin-4(3H)-one] | – | – | – | MAP 28th hour ([1]; 50 mg/kg by gavage): 127 mm Hg
17 | CCCc1nc(C)c2cn[nH]c(=S)n12 [8-Methyl-6-n-propyl-imidazolo[1,5-d]-as-triazine-4(3H)-thione] | Active | Active | – | –
18 | Cc1nc(-c2ccccc2)n2c(=O)[nH]ncc12 [8-Methyl-6-phenyl-imidazo[1,5-d]-as-triazin-4(3H)-one] | Active | Active | 133 | –
19 | Cc1nc(-c2ccccc2)n2c(=S)[nH]ncc12 [8-Methyl-6-phenyl-imidazo[1,5-d]-as-triazine-4-(3H)-thione] | – | Active | 128 | –
20 | Cc1ncn2c(=O)[nH]ncc12 [8-Methyl-imidazo[1,5-d]-as-triazin-4(3H)-one] | – | Active | 91 | –
21 | Cc1ncn2c(=S)[nH]ncc12 [8-Methyl-imidazo[1,5-d]-as-triazine-4-(3H)-thione] | – | Active | – | MAP 28th hour ([1]; 25 mg/kg by gavage): 130 mm Hg
22 | CC(C)c1nc(Cl)c2cn[nH]c(=S)n12 [8-chloro-6-isopropyl-imidazo[1,5-d]-as-triazine-4(3H)-thione] | – | – | – | dispersion after storage [4]: remains dispersed
23 | S=c1[nH]ncc2cncn12 [Imidazo[1,5-d]-as-triazin-4(3H)-thione, Imidazo[1,5-d]-as-triazine-4(3H)-thione] | – | – | 123 | –
